Legend:
Assay type in all cases: cell-based, human
H9 ESC = experiment: Gene expression profiling of ES-MSC relative to undifferentiated ESC
Protocol: An overview of the differentiation process is provided in FIG. 1, panel K. To create cell clusters or embryoid bodies of uniform size, ESCs were removed from CellStart culture using Accutase® for 2-5 minutes until single cells were observed. Cells (2.5-3×10^5 cells per ml) were suspended in StemPro human ESC serum free medium (ThermoFisher) with 10 μM Y-27632 (EMD Chemicals, Gibbstown, NJ) and 40 ng/ml FGF (Life Technologies, Carlsbad, CA) in a 125 ml spinner culture flask (Corning Inc., Corning, NY) on a magnetic stirrer (CimarecTM Biosystem Slow-Speed Stirrer, ThermoFisher) at 70 rpm for 24 hours at 37° C. with 5% CO2 to form small cell clusters (minimum total cells was 7.5×10^6 in 30 ml). After 24 hours, the cell clusters were suspended at 2.5-3×10^5 cells per ml in ultra-low adherent 6 well plates (Corning) in […] free medium (ThermoFisher) supplemented with 2 mM L-glutamine (ThermoFisher Scientific), 50 μg/ml Ascorbic acid (Stemcell Technologies, Vancouver, Canada) and 1.8 μl/ml ITS-G (100× Insulin-Transferrin-Selenium; ThermoFisher); termed as “complete SP-34 medium”. […] Total RNA was extracted from using the RNeasy kit as recommended by the manufacturer (QIAGEN, Valencia, CA). The High-Capacity cDNA Reverse Transcription Kit (Applied Biosystems, Foster City, California) kit was used to make cDNA and the following verified primer/probe assays were purchased from Applied Biosystems. Expression of the following genes was quantified POU5F1/OCT4 and SOX2 (for pluripotency); FOXA1 and SOX17 (for endoderm); NES and PAX6 (for ectoderm); NKX2-5, MSX1, NCAM1, and SOX9 (for mesoderm); ITGB1/CD29 (for MSC phenotype); and COL1A1, COL2A1, COL10A1, COMP, ACAN, and SOX9 and RUNX2 (for chondrogenesis). Gene expression was normalized to GAPDH as previously reported. Undifferentiated ESC served as a baseline for relative changes in gene expression in differentiated ES-MSC cells. Differentiated ES-MSC cells in monolayer served as baseline for changes in gene expression in pellets or hydrogel constructs.

H9 ES-MSC = experiment: Pellet culture chondrogenesis, histology and immunohistochemistry; conditions: 3 weeks, Safranin-O, collagen type I and II
Protocol: Monolayer-expanded ES-MSC (passage 2-5) were detached using Accutase® and 0.5×10^6 cells in 0.5 ml of chondrogenic medium were centrifuged at 900 rpm (~770 G) for 5 minutes to form high-density pellets. At least 5-6 pellets, for each ES-MSC condition, were cultured in serum-free chondrogenic medium consisting of Dulbecco's Modified Eagle Medium (Mediatech Inc., Manassas, VA), 1×ITS supplement (Sigma-Aldrich, St. Louis, MO), 100 nM Dexamethasone (Sigma), 1.25 mg/ml human serum albumin (Bayer, Leverkusen, Germany), 100 μM ascorbic acid 2-phosphate (Sigma), 1% penicillin/streptomycin/gentamycin (PSG, Gibco, Carlsbad, CA), and 10 ng/ml TGFβ3 (PeproTech, Rocky Hill, NJ). Pellets for ex vivo implantation were cultured for 3 days before implantation; pellets for histologic or gene expression analysis were maintained in culture for 3 weeks with media changes every 3 to 4 days.
Cell pellets and explants were fixed in Z-Fix (3.7% formaldehyde, Anatech Ltd., Battle Creek, MI), processed for embedding in paraffin, and cut into 4 μm-thick sections. Sections were stained with Safranin-O and Fast Green to visualize glycosaminoglycan distribution in the tissues. Alzarin Red S staining was used to detect the presence of mineralized matrix.
For assessment of collagen types I and II, sections were pretreated with pepsin (Digest-All 3, Thermo Fisher Scientific) for 9 minutes at 37° C. in a humid chamber before incubation at 4° C. for 12 to 16 hours with the following primary antibodies: rabbit anti-human collagen type I antibody (Ab 34710, Abcam, Cambridge, MA) 1 μg/ml; or mouse anti-human collagen type II (II-II6B3, Hybridoma Bank, University of Iowa) 2 μg/ml. For color development, the ImmPRESS secondary DAB (brown) or AP (red) kits (Vector Laboratories, Burlingame, CA) was used. Isotype controls were used to monitor non-specific staining.

ES-MSC microspheroids = experiment: Microspheroid building chamber neo-cartilage formation; conditions: 3 weeks in chamber
Description: Using a microspheroid building block approach, ES-MSC derived from treatment with ALK-5 inhibitor SB525334, as described in Example 1, were used to produce bone and cartilage (osteochondral) tissues. […] The OC tissue unit was implanted into an ex vivo model to develop biphasic tissue with an upper cartilage and lower calcified cartilage layer (FIG. 11, panels J-M). Both upper and lower tissues were Safranin O and collagen type II positive (FIG. 11, panels J-K), while the lower tissue producing calcified neo tissue (FIG. 11, panel L; von Kossa positive) and osteopontin (FIG. 11, panel M).

ES-MSC = ES-MSC on pneumatospun collagen type I scaffold, in vitro culture; conditions: 6 weeks in chondrogenic medium
Description: ES-MSC derived from treatment with ALK-5 inhibitor SB525334, as described in Example 1, produced meniscus cartilage-like tissues when seeded upon blow spun collagen scaffolds in in vitro and in vivo.

[1] = ES-MSC relative to undifferentiated ESC

Row | Compound | expression of SOX9 and COL2A1 (chondroprogenitor phenotype) (H9 ESC; [1]) | expression of mesoderm specific markers (NCAM1, MSX1, NKX2-5) and MSC marker (ITGB1) (H9 ESC; [1]) | expression of pluripotent markers POU5F1 (OCT4) and SOX2 (H9 ESC; H9 ES-MSC relative to undifferentiated ESC) | cartilage-like tissue formation in high density pellets (H9 ES-MSC) | cartilage GAGs staining of neo-cartilage tissue (ES-MSC microspheroids) | collagen type II staining of neo-cartilage tissue (ES-MSC microspheroids) | Safranin O staining (GAG deposition) on collagen scaffold (ES-MSC)
1 | NC(=O)c1ccc(-c2nc(-c3ccc4c(c3)OCO4)c(-c3ccccn3)[nH]2)cc1 [SB431542] | Increased expression | significantly upregulated | significantly down regulated | consistently produced cartilage like-tissue | – | – | –
2 | Cc1cccc(-c2[nH]c(C(C)(C)C)nc2-c2ccc3nccnc3c2)n1 [SB525334] | – | – | – | – | positive for cartilage GAGs | positive for collagen type II | extensive GAG deposition

From patent US20260242738A1, “ALK5 INHIBITORS FOR EFFICIENT DERIVATION OF MESENCHYMAL STEM CELLS FROM EMBRYONIC STEM CELLS” (SCRIPPS HEALTH, priority 2022, published 2026)
